This is an account of results in patent US9108958B2, “Selective CCR2 antagonists” (Boehringer Ingelheim International GmbH, priority 2011, dated 2015).

Assay [1] concerns the target T1, human CCR5 (Homo sapiens, UniProt P51681).
T1 construct: expressed in transfected cells; host or cells: CHO cells co-expressing Gα16, under puromycin and zeocin selection; membrane preparation
Kind of assay: CCR5 receptor membrane binding assay ([125I]RANTES, CHO (Gα16) human CCR5 cell membranes, SPA beads). To be noted: bound radioactivity after 6 h, read-out: hKi [nM] (CCR5). The procedure: The above exemplary substances have been tested for binding to CCR5 using a binding assay as outlined herein below:
CHO, (Gα16) human CCR5 cells were cultured under standardized conditions at 37° C. and 5% CO2 in a humidified incubator. CHO (Gα16) human CCR5 cells were cultivated in Ham's F12 (Invitrogen; #31765068) supplemented with 10 μg/ml Puromycin (Invitrogen; #A11139-03), 200 μg/ml Zeocin (Invitrogen; #45-0003) and 10% FCS (Gibco; #10500-064).
Membranes were prepared from CHO (Gα16) human CCR5 cells. Cells were cultured on […] plates (Nunc; #166508) 2-3 days before membrane preparation (usually 80-100 plates to obtain 80 mg protein).
Cells were scraped off the plates with a big scraper and washed with 2×5 ml ice cold Phosphate Buffer Saline (PBS; Invitrogen; #14040-174). Cell suspension was collected in a glass bottle (on ice). Cell suspension was harvested at 1400 rpm and 4° C. for 10 min and washed in PBS. Cell pellet was resuspended in 40 ml PBS with protease inhibitor mix ‘complete’ (Roche; #11873580001; 1 tablet/50 ml).
For gentle cell disruption the membrane preparation was performed by using a homogenizer (potter). Cells were homogenized for 5-10 min.
Membranes were centrifuged at 1000 rpm and 4° C. for 5 min Supernatant (=membrane) was harvested in a new falcon tube and remaining cell pellet homogenized again for 5-10 min with PBS with protease inhibitor mix and centrifuged. Collected supernatant was centrifuged at 40000 rpm and 4° C. for 30 min to sediment the cell membranes.
The membranes were resuspended in 25 mM HEPES, 25 mM MgCl2, 1 mM CaCl2, 10% Glycerine for storage in aliquots at −80° C. Membranes were diluted to a concentration of 5 mg/ml (Bradford Assay).
(§1) Receptor Membrane Binding Assay:
[^125I]RANTES, Stock: 1825 Ci/mmol, 25 μCi (Bio Trend #A3-AI-676) was solved in 1000 μl assay buffer (100 mM NaCl; 10 mM MgCl2; 50 mM Tris-HCl; 1 mM EDTA; 0.1% BSA, pH 7.6), stored at −20° C.
CHO (Gα16) human CCR5 membrane were solved on ice and adjusted with assay buffer to a concentration of 2.5 μg/15 μl.
Amersham Biosciences PVT-WGA Beads (GE Healthcare; #RPNQ0001) were adjusted with assay buffer to a concentration of 8 mg/ml. For preparation of the membrane-bead-suspension, membranes and beads were incubated for 30 min at RT under rotation with a ratio of 1:2.
Test compounds dissolved in 100% DMSO to a concentration of 10 mM and are further diluted with 100% DMSO to 1 mM. All additional compound dilutions were obtained with assay buffer, final 1% DMSO. 7 μl compound dilution, 45 μl membrane-bead-suspension and 10 μl [^125I]RANTES (ca. 20000 cpm/10 μl) were incubated at RT. Bound radioactivity was determined by scintillation counter after 6 h. Determination of affinity of test compounds (dissociation constant Ki) is calculated by iterative fitting of experimental data using the “easy sys” program, which is based on law of mass action (Schittkowski K. (1994), Numerische Mathematik, Vol. 68, 129-142).

For assay [2], the target named is T2, CCR2 (Homo sapiens, UniProt P41597).
T2 construct: Membranes were prepared from THP-1 cells; endogenous in cells; host or cells: THP-1 (human acute monocytic leukaemia cells), membrane preparation
T2 sequence (P41597 1-360 isoform P41597-2): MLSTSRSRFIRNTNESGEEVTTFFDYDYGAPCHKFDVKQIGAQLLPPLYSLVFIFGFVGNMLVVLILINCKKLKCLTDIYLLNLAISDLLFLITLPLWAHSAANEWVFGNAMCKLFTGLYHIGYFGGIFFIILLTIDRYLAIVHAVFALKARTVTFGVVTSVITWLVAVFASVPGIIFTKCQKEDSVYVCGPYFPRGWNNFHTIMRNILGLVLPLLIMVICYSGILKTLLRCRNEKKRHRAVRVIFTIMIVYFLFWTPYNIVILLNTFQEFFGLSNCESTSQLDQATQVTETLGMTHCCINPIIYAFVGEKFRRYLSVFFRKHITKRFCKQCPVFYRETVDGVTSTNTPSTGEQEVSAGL
As to the kind of experiment: CCR2 receptor membrane binding assay ([125I]MCP-1, THP-1 cell membranes, SPA beads). To be noted: THP-1 membranes, [125I]MCP-1, bound radioactivity after 8 h; read-out: hKi [nM](CCR2). The procedure: The above exemplary substances have been tested for binding to CCR2 using a binding assay as outlined herein below:
THP-1 cells (human acute monocytic leukaemia cells) were cultured under standardized conditions at 37° C. and 5% CO2 in a humidified incubator. THP-1 cells were cultivated in RPMI 1640 medium (Gibco 21875) containing 1% MEM-NEAA (Gibso 11140) 2 mM L-glutamine, 1.5 g/L sodium bicarbonate, 4.5 g/L glucose, 10 mM HEPES and 1.0 mM sodium pyruvate, 90%; 10% fetal calf serum (FCS Gibco 10500-064).
Membranes were prepared from THP-1 cells. THP-1 cells were centrifuged at 300×g at 4° C. for 10 min. The cell pellet was resuspendet in Phosphate Buffer Saline (PBS, including 10 μM Pefabloc and a protease inhibitor mix ‘complete’, Boehringer Mannheim (1 tablet/50 ml)), to a concentration of […]. The membrane preparation was performed by disrupting the cells by nitrogen […] (at 50 bar, for 1 h) in a “Nitrogen Bombe” (Parr Instrument). Cell debris was removed by centrifugation (800×g at 4° C., 1 min) The supernatant was centrifuged at 80000×g, 4° C. for 30 min to sediment the cell membranes. Usually 50 mg of protein (Bradford assay) were yielded from 1×10E9 cells. The membranes were resuspendet in 25 mM HEPES, 25 mM MgCl2, 1 mM CaCl2, 10% Glycerine for storage in aliquots at −80° C. in 25 mM HEPES, 25 mM MgCl2, 1 mM CaCl2, 10% Glycerine and stored at −80° C.
as §1
Perkin Elmer NEX 332 Jod^125 MCP-1, Stock: 2200 Ci/mmol solved in 2000 μl assay buffer, stored at −20° C. THP-1 membrane were adjusted with 25 mM HEPES, pH 7.2; 5 mM MgCl2; 0.5 mM CaCl2; 0.2% BSA assay buffer to a concentration of 2.5 μg/15 μl. Amersham Biosciences PVT-WGA Beads (RPNQ0001) were adjusted with assay buffer to a concentration of 0.24 mg/30 μl. For preparation of the membrane-bead-suspension membranes and beads were incubated for 30 min at RT under rotation (60 rpm) with a ratio of 1:2. Test compounds dissolved in 100% DMSO to a concentration of 10 mM and are further diluted with 100% DMSO to 1 mM. All additional compound dilutions were obtained with assay buffer, final 1% DMSO. Compounds, membrane-bead-suspension and [^125I]MCP-1 (ca. 25000 cpm/10 μl) were incubated. Bound radioactivity was determined by scintillation counter after 8 h. Determination of affinity of test compounds (dissociation constant hKi) is calculated by iterative fitting of experimental data using the “easy sys” program, which is based on law of mass action (Schittkowski K. (1994), Numerische Mathematik, Vol. 68, 129-142).

T1 sequence (P51681 whole entry): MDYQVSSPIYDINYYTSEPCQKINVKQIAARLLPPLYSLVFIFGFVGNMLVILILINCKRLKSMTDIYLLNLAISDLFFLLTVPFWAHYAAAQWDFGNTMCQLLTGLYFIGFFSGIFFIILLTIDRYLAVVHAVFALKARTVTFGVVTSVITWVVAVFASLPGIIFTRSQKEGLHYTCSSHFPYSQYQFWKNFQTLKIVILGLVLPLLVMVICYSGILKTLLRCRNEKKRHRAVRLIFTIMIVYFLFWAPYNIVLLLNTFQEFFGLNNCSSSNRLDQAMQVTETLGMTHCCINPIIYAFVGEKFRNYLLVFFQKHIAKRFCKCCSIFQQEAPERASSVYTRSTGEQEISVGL

As to `Cc1c(C(=O)N2CCC(N[C@H]3CCOC[C@H]3F)CC2)nc(C2CCOCC2)nc1N1CCc2cc(C(F)(F)F)ccc2C1` [Example 5], the Ki in assay [1] came out at 4580 nM; in assay [2] it was 14 nM.
On the same counts, the results for `CO[C@H]1COCC[C@H]1NC1CCN(C(=O)c2nc(CF)nc(Nc3ccc(Cl)c(Cl)c3)c2C)CC1` [Example 21] are 75 nM and 2 nM.
For `Cc1c(C(=O)N2CCC(N[C@H]3CCOC[C@@H]3F)CC2)nc(CF)nc1N1CCc2ccc(C(F)(F)F)cc2C1` (relative stereo) [Example 46], the Ki in assay [1] came to 3680 nM; in assay [2], 34 nM.
On the same counts, the results for `CO[C@@H]1COCC[C@@H]1NC1CCN(C(=O)c2nc(CF)nc(Nc3ccc(Cl)c(Cl)c3)c2C)CC1` [Example 20] are 31 nM and 0.6 nM.
Taken in the same sequence, the figures for `Cc1cc(-c2nc(C(=O)N3CCC(N[C@H]4CCOC[C@H]4F)CC3)c(C)c(N3CCc4cc(C(F)(F)F)ccc4C3)n2)no1` [Example 9] were 3400 nM and 38 nM.
Consider `Cc1cc(-c2nc(C(=O)N3CCC(N[C@@H]4CCOC[C@@H]4F)CC3)c(C)c(N3CCc4ccc(C(F)(F)F)cc4C3)n2)no1` [Example 28], for which the Ki was determined as 1350 nM in assay [1] and 11 nM in assay [2].
Taken in the same sequence, the figures for `CO[C@H]1COCC[C@H]1NC1CCN(C(=O)c2nc(CF)nc(N3CCc4ccc(C(F)(F)F)cc4C3)c2C)CC1` [Example 18] were 460 nM and 5 nM.
Taken in the same sequence, the figures for `Cc1c(Nc2ccc(Cl)c(Cl)c2)nc(CF)nc1C(=O)N1CCC(NC2CCOCC2F)CC1` (stereo not shown) [Example 19] were 350 nM and 3 nM.
For the compound `Cc1c(NC[C@H]2CCC[C@@H](c3ccc(C(F)(F)F)cc3)O2)nc(C2CCOCC2)nc1C(=O)N1CCC(N[C@H]2CCOC[C@H]2F)CC1` [Example 16], the Ki stood at 210 nM in assay [1] and 1 nM in assay [2].
Taken in the same sequence, the figures for `CO[C@@H]1COCC[C@@H]1NC1CCN(C(=O)c2nc(-c3cc(C)on3)nc(N3CCc4cc(C(F)(F)F)ccc4C3)c2C)CC1` [Example 7] were 380 nM and 8 nM.
As to `CO[C@@H]1COCC[C@@H]1NC1CCN(C(=O)c2nc(C(F)(F)F)nc(N3CCc4ccc(C(F)(F)F)cc4C3)c2C)CC1` [Example 2], the results for the Ki in assay [1] and in assay [2] were 150 nM and 2 nM, respectively.
Take `CO[C@@H]1COCC[C@@H]1NC1CCN(C(=O)c2nc(C3CCOCC3)nc(N3CCc4ccc(C(F)(F)F)cc4C3)c2C)CC1` [Example 12]: the Ki stood at 46 nM in assay [1] and 0.6 nM in assay [2].
Take `CO[C@@H]1COCC[C@@H]1NC1CCN(C(=O)c2nc(-c3cc(C)on3)nc(N3CCc4ccc(C(F)(F)F)cc4C3)c2C)CC1` [Example 29]: the Ki in assay [1] came to 53 nM; in assay [2] it was 2 nM.
With `Cc1cc(-c2nc(C(=O)N3CCC(N[C@@H]4CCOC[C@@H]4F)CC3)c(C)c(N3CCc4cc(C(F)(F)F)ccc4C3)n2)no1` [Example 6], the Ki in assay [1] was 17300 nM; in assay [2], 20 nM.
As for `CO[C@H]1COCC[C@H]1NC1CCN(C(=O)c2nc(-c3cc(C)on3)nc(N3CCc4ccc(C(F)(F)F)cc4C3)c2C)CC1` [Example 26], the Ki in assay [1] was 130 nM; in assay [2] it was 5 nM.
As to `Cc1cc(-c2nc(NC[C@H]3CCC[C@@H](c4ccc(C(F)(F)F)cc4)O3)c(C)c(C(=O)N3CCC(N[C@@H]4CCOC[C@@H]4F)CC3)n2)no1` [Example 24], the values for the Ki in assay [1] and in assay [2] were 50 nM and 1 nM, respectively.
Taken in the same sequence, the figures for `Cc1c(C(=O)N2CCC(N[C@@H]3CCOC[C@@H]3F)CC2)nc(C2CCOCC2)nc1N1CCc2ccc(C(F)(F)F)cc2C1` [Example 14] were 2090 nM and 3 nM.
Take `Cc1c(Nc2ccc(Cl)c(Cl)c2)nc(CF)nc1C(=O)N1CCC(N[C@@H]2CCOC[C@@H]2F)CC1` [Example 37]: the Ki stood at 1370 nM in assay [1] and 8 nM in assay [2].
Regarding `CO[C@H]1COCC[C@H]1NC1CCN(C(=O)c2nc(C3CCOCC3)nc(N3CCc4cc(C(F)(F)F)ccc4C3)c2C)CC1` [Example 3], the results for the Ki in assay [1] and in assay [2] were 700 nM and 4 nM, respectively.
As for `Cc1c(C(=O)N2CCC(N[C@H]3CCOC[C@H]3F)CC2)nc(CF)nc1N1CCc2ccc(C(F)(F)F)cc2C1` (relative stereo) [Example 45], the values for the Ki in assay [1] and in assay [2] were 3450 nM and 17 nM, respectively.
